# Results taken from patent publication US4689326A, “Process for controlling hyperlipidemia” (Research Corporation, priority 1985, dated 1987).
# What was measured:
# [1] = target: T1, Acetyl CoA Synthetase (Mus musculus, UniProt Q9QXG4); experiment: In vitro enzyme activity, liver homogenate: acetyl CoA synthetase; format: biochemical, CF1 male mouse; details: ± SD, N = 6, read-out: Percent Control, in vitro enzyme activity
# T1 construct: 10% homogenates of CF1 male mouse liver; from tissue; host or cells: CF1 male mouse liver, 10% homogenate
# T1 sequence (Q9QXG4 whole entry): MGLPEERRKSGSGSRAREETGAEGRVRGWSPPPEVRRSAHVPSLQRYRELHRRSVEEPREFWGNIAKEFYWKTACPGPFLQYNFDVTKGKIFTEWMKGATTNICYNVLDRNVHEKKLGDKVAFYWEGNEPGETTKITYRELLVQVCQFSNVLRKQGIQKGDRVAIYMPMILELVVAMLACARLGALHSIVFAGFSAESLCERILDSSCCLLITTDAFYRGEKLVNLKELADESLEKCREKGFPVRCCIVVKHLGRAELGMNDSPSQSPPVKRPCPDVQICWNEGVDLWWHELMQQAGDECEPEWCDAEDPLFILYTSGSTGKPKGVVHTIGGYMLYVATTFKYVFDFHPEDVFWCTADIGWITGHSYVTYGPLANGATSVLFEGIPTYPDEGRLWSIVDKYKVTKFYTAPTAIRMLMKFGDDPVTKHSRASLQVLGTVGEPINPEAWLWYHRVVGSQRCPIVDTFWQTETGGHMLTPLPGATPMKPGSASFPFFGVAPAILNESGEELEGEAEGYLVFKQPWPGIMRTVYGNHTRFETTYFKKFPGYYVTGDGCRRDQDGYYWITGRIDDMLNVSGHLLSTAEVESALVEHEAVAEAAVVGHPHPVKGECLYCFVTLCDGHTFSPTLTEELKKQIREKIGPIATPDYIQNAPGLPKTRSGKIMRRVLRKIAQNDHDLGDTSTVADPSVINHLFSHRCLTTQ
# Protocol: (§1) In vitro enzymatic studies were undertaken using 10% homogenates of CF1 male mouse liver with […] of compound 3,4,5,6-dibenzohomopiperidine. In addition, in vivo enzymatic studies were performed, again using 10% liver homogenates (prepared in 0.25 M sucrose plus 0.001 M (ethylenedinitrilo)-tetraacetic acid, ph 7.25 from CF1 male mice obtained after administering 3,4,5,6-dibenzohomopiperidine for 16 days at a concentration ranging from 10 to 60 mg/kg/day, intraperitoneally.
# (§2) The following enzyme activities were determined by following standard literature procedures: acetyl coenzyme synthetase; adenosine triphosphate dependent citrate lyase; mitochondrial citrate exchange; cholesterol/7 hydroxylase; 3-hydroxy-3-methyl-glutaryl coenzyme A reductase; acetyl coenzyme A carboxylase activity; fatty acid synthetase activity; sn-glycerol-3-phosphate acyl transferase activity; phosphatidate phosphohydrolase activity; cholesterol acyl transferase; and heparin activated hepatic lypoprotein lipase. Protein was determined for all enzyme assays by the Lowry et al. technique (J. Biol. Chem, 193, 265 (1951)).
# [2] = target: T2, HMG CoA Reductase (Mus musculus, UniProt Q01237); experiment: In vitro enzyme activity, liver homogenate: HMG CoA reductase; format: biochemical, CF1 male mouse; details: ± SD, N = 6, read-out: Percent Control, in vitro enzyme activity
# T2 construct: 10% homogenates of CF1 male mouse liver; from tissue; host or cells: CF1 male mouse liver, 10% homogenate
# T2 sequence (Q01237 1-887): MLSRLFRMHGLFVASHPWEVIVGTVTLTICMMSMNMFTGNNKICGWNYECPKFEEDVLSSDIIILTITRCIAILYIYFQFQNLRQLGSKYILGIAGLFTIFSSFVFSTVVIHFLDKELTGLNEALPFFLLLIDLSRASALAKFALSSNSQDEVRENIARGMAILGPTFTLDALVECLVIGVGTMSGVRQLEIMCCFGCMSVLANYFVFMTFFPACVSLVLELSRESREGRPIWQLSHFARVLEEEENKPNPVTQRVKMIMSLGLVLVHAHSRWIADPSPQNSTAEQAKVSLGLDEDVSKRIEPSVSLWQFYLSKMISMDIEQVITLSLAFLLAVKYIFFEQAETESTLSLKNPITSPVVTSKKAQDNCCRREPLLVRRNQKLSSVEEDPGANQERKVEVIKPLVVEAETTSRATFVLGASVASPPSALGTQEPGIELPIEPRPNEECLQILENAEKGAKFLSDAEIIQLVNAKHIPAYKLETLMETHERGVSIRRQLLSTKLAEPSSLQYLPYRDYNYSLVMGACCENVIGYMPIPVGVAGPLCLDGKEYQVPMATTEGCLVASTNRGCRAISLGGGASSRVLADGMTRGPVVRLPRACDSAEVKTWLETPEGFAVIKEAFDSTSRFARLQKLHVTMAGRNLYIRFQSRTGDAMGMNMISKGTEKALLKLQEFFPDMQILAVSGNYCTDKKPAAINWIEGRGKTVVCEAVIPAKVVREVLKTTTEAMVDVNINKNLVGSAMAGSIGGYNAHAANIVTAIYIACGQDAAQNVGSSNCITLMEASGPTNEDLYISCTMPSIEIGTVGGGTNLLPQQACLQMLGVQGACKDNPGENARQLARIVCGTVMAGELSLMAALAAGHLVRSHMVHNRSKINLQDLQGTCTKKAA
# Protocol: as §1, §2
# [3] = system: Acetyl CoA Carboxylase; experiment: In vivo enzyme activity, liver of treated mice: acetyl CoA carboxylase; set-up: species or system CF1 male mice; details: 16 days, ± SD
# Protocol: as §1, §2
# [4] = system: serum triglycerides; experiment: Testing of Normal Mice: serum triglycerides (BioDynamics kit), Example 7; format: in vivo, CF1 male mice; details: Mus musculus, 384 h, day 16, ± SD
# [5] = target: T3, ATP Dependent Citrate Lyase (Mus musculus, UniProt Q91V92); experiment: In vitro enzyme activity, liver homogenate: ATP dependent citrate lyase; format: biochemical, CF1 male mouse; details: ± SD, N = 6, read-out: Percent Control, in vitro enzyme activity
# T3 construct: 10% homogenates of CF1 male mouse liver; from tissue; host or cells: CF1 male mouse liver, 10% homogenate
# T3 sequence (Q91V92 1-1091): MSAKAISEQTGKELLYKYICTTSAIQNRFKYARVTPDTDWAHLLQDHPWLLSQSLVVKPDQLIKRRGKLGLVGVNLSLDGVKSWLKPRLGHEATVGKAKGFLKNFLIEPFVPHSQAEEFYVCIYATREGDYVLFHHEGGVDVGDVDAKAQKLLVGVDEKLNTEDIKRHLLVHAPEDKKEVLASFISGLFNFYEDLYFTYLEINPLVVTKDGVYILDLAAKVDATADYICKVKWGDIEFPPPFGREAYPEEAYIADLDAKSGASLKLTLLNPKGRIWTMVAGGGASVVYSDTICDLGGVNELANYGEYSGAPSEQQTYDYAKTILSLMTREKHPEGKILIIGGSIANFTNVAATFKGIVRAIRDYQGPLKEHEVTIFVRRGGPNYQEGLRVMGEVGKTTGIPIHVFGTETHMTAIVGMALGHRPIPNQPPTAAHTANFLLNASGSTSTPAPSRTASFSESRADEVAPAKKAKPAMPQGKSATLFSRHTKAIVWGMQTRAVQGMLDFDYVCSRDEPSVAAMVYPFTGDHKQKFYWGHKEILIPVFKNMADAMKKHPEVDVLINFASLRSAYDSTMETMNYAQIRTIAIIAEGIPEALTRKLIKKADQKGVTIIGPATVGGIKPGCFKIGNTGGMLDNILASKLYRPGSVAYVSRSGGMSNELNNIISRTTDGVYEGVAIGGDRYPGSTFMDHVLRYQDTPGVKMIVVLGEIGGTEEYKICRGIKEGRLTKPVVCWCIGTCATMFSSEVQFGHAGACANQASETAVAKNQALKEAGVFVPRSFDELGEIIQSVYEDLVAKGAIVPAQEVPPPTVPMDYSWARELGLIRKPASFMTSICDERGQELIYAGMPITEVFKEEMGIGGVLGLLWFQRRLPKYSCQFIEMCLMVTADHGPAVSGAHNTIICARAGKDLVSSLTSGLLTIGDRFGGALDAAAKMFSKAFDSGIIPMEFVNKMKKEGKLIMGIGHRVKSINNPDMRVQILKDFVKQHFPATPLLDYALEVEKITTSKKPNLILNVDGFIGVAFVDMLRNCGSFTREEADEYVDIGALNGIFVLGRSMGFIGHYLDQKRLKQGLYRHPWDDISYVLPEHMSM
# Protocol: as §1, §2
smiles,measurement,setting,value
"c1ccc2c(c1)CNCc1ccccc1-2 [Compound 3, 3,4,5,6-dibenzohomopiperidine]",remaining activity at 50 µM,[1]; 50 μM,112 ± 6%
same,remaining activity at 100 µM,[1]; 100 μM,100 ± 7%
same,remaining activity at 200 µM,[1]; 200 μM,101 ± 6%
same,remaining activity at 50 µM,[2]; 50 μM,95 ± 5%
same,remaining activity at 100 µM,[2]; 100 μM,151 ± 9%
same,remaining activity at 200 µM,[2]; 200 μM,255 ± 8%
same,"Percent Control, in vivo enzyme activity",[3]; 10 mg/kg/day ip,54 ± 6%
same,"Percent Control, in vivo enzyme activity",[3]; 20 mg/kg/day ip,57 ± 7%
same,"Percent Control, in vivo enzyme activity",[3]; 40 mg/kg/day ip,47 ± 5%
same,"Percent Control, in vivo enzyme activity",[3]; 60 mg/kg/day ip,60 ± 4%
same,response vs control in vivo at 10 mg/kg,[4]; 10 mg/kg/day ip,48 ± 5%
same,response vs control in vivo at 40 mg/kg,[4]; 40 mg/kg/day ip,44 ± 6%
same,response vs control in vivo at 60 mg/kg,[4]; 60 mg/kg/day ip,55 ± 6%
same,remaining activity at 50 µM,[5]; 50 μM,87 ± 5%
same,remaining activity at 100 µM,[5]; 100 μM,38 ± 3%
same,remaining activity at 200 µM,[5]; 200 μM,33 ± 4%
